# Assay results from patent publication US9499550B2 (BRISTOL-MYERS SQUIBB COMPANY, priority 2012, dated 2016).
# Read-outs that look alike come from different tables or passages of the source.
# Key:
# [1] = tested on: HCV genotype 1a (H77 strain) replicon in HUH-7 cells; experiment: HCV replicon luciferase reporter assay, genotype 1a; type: cell-based; settings: Hepatitis C virus, Huh-7, 72 h, HCV genotype 1a replicon luciferase, 3 days incubation
# Method in brief: (§1)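 Replicon inhibition for both genotypes was measured as Renilla luciferase signal (EnduRen, 7.5 μM final, 2 h) after 3-day, 37° C exposure of replicon-bearing HUH-7 cells in 4% FCS DMEM, 0.5% DMSO. The 1b construct carries S1179I; the 1a H77 construct carries P1496L and S2204I. Twenty-point, 3-fold dilutions were fitted four-parametrically for EC50, and CC50 was taken from multiplexed Cell Titer-Blue.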
# [2] = tested on: HCV genotype 1b (Con1) replicon in HUH-7 cells; experiment: HCV replicon luciferase reporter assay, genotype 1b; type: cell-based; settings: Hepatitis C virus, Huh-7, 72 h, HCV genotype 1b replicon luciferase, 3 days incubation
# Method in brief: as §1
Compound,"EC50 ([1]; read-out: LE_1a (EC50, range)) [nM]","EC50 ([2]; read-out: LE_1b (EC50, range)) [nM]",EC50 ([1]; read-out: LE_1a (EC50)) [nM],EC50 ([2]; read-out: LE_1b (EC50)) [nM],"EC50 ([1]; GETYPE1A, read-out: LE_1a (EC50, range)) [nM]","EC50 ([2]; GETYPE1B, read-out: LE_1b (EC50, range)) [nM]"
"COc1ccc2c(O[C@@H]3C[C@H]4C(=O)N[C@]5(C(=O)NS(=O)(=O)C6(C)CC6)C[C@H]5/C=C\CC[C@@H](C)C[C@@H](C)[C@H](NC(=O)OC(C)(C)C(C)(F)F)C(=O)N4C3)nc(-c3ccc(OC(C)C)cc3)c(OC)c2c1 [Compound 5346, 3,3-difluoro-2-methylbutan-2-yl((2R,6S,7R,9R,13aS,14aR,16aS,Z)-2-((3-(4-isopropoxyphenyl)-4,6-dimethoxyisoquinolin-1-yl)oxy)-7,9-dimethyl-14a-(((1-methylcyclopropyl)sulfonyl)carbamoyl)-5,16-dioxo-1,2,3,5,6,7,8,9,10,11,13a,14,14a,15,16,16a-hexadecahydrocyclopropa[e]pyrrolo[1,2-a][1,4]diazacyclopentadecin-6-yl)carbamate]",< 5.46,< 5.46,,,,
"COc1ccc2c(O[C@@H]3C[C@H]4C(=O)N[C@]5(C(=O)NS(=O)(=O)C6(C)CC6)C[C@H]5/C=C\CC[C@@H](C)C[C@@H](C)[C@H](NC(=O)OC(C)(C)C(F)(F)F)C(=O)N4C3)nc(-c3ccc(OC(C)C)cc3)c(OC)c2c1 [Compound 5348, 1,1,1-trifluoro-2-methylpropan-2-yl((2R,6S,7R,9R,13aS,14aR,16aS,Z)-2-((3-(4-isopropoxyphenyl)-4,6-dimethoxyisoquinolin-1-yl)oxy)-7,9-dimethyl-14a-(((1-methylcyclopropyl)sulfonyl)carbamoyl)-5,16-dioxo-1,2,3,5,6,7,8,9,10,11,13a,14,14a,15,16,16a-hexadecahydrocyclopropa[e]pyrrolo[1,2-a][1,4]diazacyclopentadecin-6-yl)carbamate]",< 5.46,< 5.46,,,,
"COc1ccc2c(O[C@@H]3C[C@H]4C(=O)N[C@]5(C(=O)NS(=O)(=O)C6(C)CC6)C[C@H]5/C=C\CC[C@H](C)C[C@@H](C)[C@H](NC(=O)O[C@H](C)C(F)(F)F)C(=O)N4C3)nc(-c3ccc(OC(C)C)cc3)c(OC)c2c1 [Compound 5349, (R)-1,1,1-trifluoropropan-2-yl ((2R,6S,7R,9S,13aS,14aR,16aS,Z)-2-((3-(4-isopropoxyphenyl)-4,6-dimethoxyisoquinolin-1-yl)oxy)-7,9-dimethyl-14a-(((1-methylcyclopropyl)sulfonyl)carbamoyl)-5,16-dioxo-1,2,3,5,6,7,8,9,10,11,13a,14,14a,15,16,16a-hexadecahydrocyclopropa[e]pyrrolo[1,2-a][1,4]diazacyclopentadecin-6-yl)carbamate]",4.82 to 103,< 5.46,,,,
"COc1ccc2c(O[C@@H]3C[C@H]4C(=O)N[C@]5(C(=O)NS(=O)(=O)C6(C)CC6)C[C@H]5/C=C\CC[C@@H](C)C[C@@H](C)[C@H](NC(=O)O[C@H](C)C(F)(F)F)C(=O)N4C3)nc(-c3ccc(OC(C)C)cc3)c(OC)c2c1 [Compound 5350, (R)-1,1,1-trifluoropropan-2-yl ((2R,6S,7R,9R,13aS,14aR,16aS,Z)-2-((3-(4-isopropoxyphenyl)-4,6-dimethoxyisoquinolin-1-yl)oxy)-7,9-dimethyl-14a-(((1-methylcyclopropyl)sulfonyl)carbamoyl)-5,16-dioxo-1,2,3,5,6,7,8,9,10,11,13a,14,14a,15,16,16a-hexadecahydrocyclopropa[e]pyrrolo[1,2-a][1,4]diazacyclopentadecin-6-yl)carbamate]",< 5.46,< 5.46,2.12,1.48,,
COc1cnc(O[C@@H]2C[C@H]3C(=O)N[C@]4(C(=O)NS(=O)(=O)C5CCC5)C[C@H]4/C=C\CC[C@@H](C)C[C@@H](C)[C@H](NC(=O)OC(C)(C)C)C(=O)N3C2)c2ccccc12 [Compound 5352],< 5.46,< 5.46,,,,
"COc1cnc(O[C@@H]2C[C@H]3C(=O)N[C@]4(C(=O)NS(=O)(=O)C5CCC5)C[C@H]4/C=C\CC[C@H](C)C[C@@H](C)[C@H](NC(=O)OC(C)(C)C(F)(F)F)C(=O)N3C2)c2ccccc12 [Compound 5353, 1,1,1-trifluoro-2-methylpropan-2-yl((2R,6S,7R,9S,13aS,14aR,16aS,Z)-14a-((cyclobutylsulfonyl)carbamoyl)-2-((4-methoxyisoquinolin-1-yl)oxy)-7,9-dimethyl-5,16-dioxo-1,2,3,5,6,7,8,9,10,11,13a,14,14a,15,16,16a-hexadecahydrocyclopropa[e]pyrrolo[1,2-a][1,4]diazacyclopentadecin-6-yl)carbamate]",4.82 to 103,< 5.46,,,,
"COc1cnc(O[C@@H]2C[C@H]3C(=O)N[C@]4(C(=O)NS(=O)(=O)C5CCC5)C[C@H]4/C=C\CC[C@@H](C)C[C@@H](C)[C@H](NC(=O)OC(C)(C)C(F)(F)F)C(=O)N3C2)c2ccccc12 [Compound 5354, 1,1,1-trifluoro-2-methylpropan-2-yl((2R,6S,7R,9R,13aS,14aR,16aS,Z)-14a-((cyclobutylsulfonyl)carbamoyl)-2-((4-methoxyisoquinolin-1-yl)oxy)-7,9-dimethyl-5,16-dioxo-1,2,3,5,6,7,8,9,10,11,13a,14,14a,15,16,16a-hexadecahydrocyclopropa[e]pyrrolo[1,2-a][1,4]diazacyclopentadecin-6-yl)carbamate]",< 5.46,< 5.46,,,,
CCOc1cnc(O[C@@H]2C[C@H]3C(=O)N[C@]4(C(=O)NS(=O)(=O)C5(CF)CC5)C[C@H]4/C=C\CC[C@@H](C)C[C@@H](C)[C@H](NC(=O)OC(C)(C)C(C)(F)F)C(=O)N3C2)c2ccccc12 [Compound 5355],,,,,1.01 to 5,1.01 to 5
"CCOc1ccc2c(O[C@@H]3C[C@H]4C(=O)N[C@]5(C(=O)NS(=O)(=O)C6CC6)C[C@H]5/C=C\CC[C@@H](C)C[C@@H](CC)[C@H](NC(=O)OC(C)(C)C(F)(F)F)C(=O)N4C3)nccc2c1 [Compound 5357, 1,1,1-trifluoro-2-methylpropan-2-yl((2R,6S,7R,9R,13aS,14aR,16aS,Z)-14a-((cyclopropylsulfonyl)carbamoyl)-2-((6-ethoxyisoquinolin-1-yl)oxy)-7-ethyl-9-methyl-5,16-dioxo-1,2,3,5,6,7,8,9,10,11,13a,14,14a,15,16,16a-hexadecahydrocyclopropa[e]pyrrolo[1,2-a][1,4]diazacyclopentadecin-6-yl)carbamate]",1.01 to 5,0.51 to 1,,,,
CCOc1ccc2c(O[C@@H]3C[C@H]4C(=O)N[C@]5(C(=O)NS(=O)(=O)C6CC6)C[C@H]5/C=C\CC[C@@H](C)C[C@@H](CC)[C@H](NC(=O)OC(C)(C)C(C)(F)F)C(=O)N4C3)nccc2c1 [Compound 5359],1.01 to 5,1.01 to 5,,,,
"CCOc1ccc2c(O[C@@H]3C[C@H]4C(=O)N[C@]5(C(=O)NS(=O)(=O)C6CC6)C[C@H]5/C=C\CC[C@@H](C)C[C@@H](CC)[C@H](NC(=O)OC(C)(C)C)C(=O)N4C3)nccc2c1 [Compound 5361, tert-butyl ((2R,6S,7R,9R,13aS,14aR,16aS,Z)-14a-((cyclopropylsulfonyl)carbamoyl)-2-((6-ethoxyisoquinolin-1-yl)oxy)-7-ethyl-9-methyl-5,16-dioxo-1,2,3,5,6,7,8,9,10,11,13a,14,14a,15,16,16a-hexadecahydrocyclopropa[e]pyrrolo[1,2-a][1,4]diazacyclopentadecin-6-yl)carbamate]",0.51 to 1,0.51 to 1,,,,
"CCOc1ccc2c(O[C@@H]3C[C@H]4C(=O)N[C@]5(C(=O)NS(=O)(=O)C6(CF)CC6)C[C@H]5/C=C\CC[C@@H](C)C[C@@H](C)[C@H](NC(=O)OC(C)(C)C(F)(F)F)C(=O)N4C3)nccc2c1 [Compound 5363, 1,1,1-trifluoro-2-methylpropan-2-yl((2R,6S,7R,9R,13aS,14aR,16aS,Z)-2-((6-ethoxyisoquinolin-1-yl)oxy)-14a-(((1-(fluoromethyl)cyclopropyl)sulfonyl)carbamoyl)-7,9-dimethyl-5,16-dioxo-1,2,3,5,6,7,8,9,10,11,13a,14,14a,15,16,16a-hexadecahydrocyclopropa[e]pyrrolo[1,2-a][1,4]diazacyclopentadecin-6-yl)carbamate]",1.01 to 5,0.51 to 1,,,,
"CCOc1ccc2c(O[C@@H]3C[C@H]4C(=O)N[C@]5(C(=O)NS(=O)(=O)C6(CF)CC6)C[C@H]5/C=C\CC[C@@H](C)C[C@@H](C)[C@H](NC(=O)OC(C)(C)C(C)(F)F)C(=O)N4C3)nccc2c1 [Compound 5365, 3,3-difluoro-2-methylbutan-2-yl((2R,6S,7R,9R,13aS,14aR,16aS,Z)-2-((6-ethoxyisoquinolin-1-yl)oxy)-14a-(((1-(fluoromethyl)cyclopropyl)sulfonyl)carbamoyl)-7,9-dimethyl-5,16-dioxo-1,2,3,5,6,7,8,9,10,11,13a,14,14a,15,16,16a-hexadecahydrocyclopropa[e]pyrrolo[1,2-a][1,4]diazacyclopentadecin-6-yl)carbamate]",1.01 to 5,0.51 to 1,,,,
"CCOc1ccc2c(O[C@@H]3C[C@H]4C(=O)N[C@]5(C(=O)NS(=O)(=O)C6(CF)CC6)C[C@H]5/C=C\CC[C@@H](C)C[C@@H](C)[C@H](NC(=O)OC(C)(C)C)C(=O)N4C3)nccc2c1 [Compound 5367, tert-butyl ((2R,6S,7R,9R,13aS,14aR,16aS,Z)-2-((6-ethoxyisoquinolin-1-yl)oxy)-14a-(((1-(fluoromethyl)cyclopropyl)sulfonyl)carbamoyl)-7,9-dimethyl-5,16-dioxo-1,2,3,5,6,7,8,9,10,11,13a,14,14a,15,16,16a-hexadecahydrocyclopropa[e]pyrrolo[1,2-a][1,4]diazacyclopentadecin-6-yl)carbamate]",0.51 to 1,0.1 to 0.5,,,,
